Reference: BindingDB's records for doi:10.7270/Q2Q52N1X (Vanderbilt Screening Center for GPCRs, Ion Channels and …, 2009)

Target: T1, Solute carrier family 12 member 5 (Homo sapiens, UniProt Q9H2X9)
T1 sequence (Q9H2X9 whole entry): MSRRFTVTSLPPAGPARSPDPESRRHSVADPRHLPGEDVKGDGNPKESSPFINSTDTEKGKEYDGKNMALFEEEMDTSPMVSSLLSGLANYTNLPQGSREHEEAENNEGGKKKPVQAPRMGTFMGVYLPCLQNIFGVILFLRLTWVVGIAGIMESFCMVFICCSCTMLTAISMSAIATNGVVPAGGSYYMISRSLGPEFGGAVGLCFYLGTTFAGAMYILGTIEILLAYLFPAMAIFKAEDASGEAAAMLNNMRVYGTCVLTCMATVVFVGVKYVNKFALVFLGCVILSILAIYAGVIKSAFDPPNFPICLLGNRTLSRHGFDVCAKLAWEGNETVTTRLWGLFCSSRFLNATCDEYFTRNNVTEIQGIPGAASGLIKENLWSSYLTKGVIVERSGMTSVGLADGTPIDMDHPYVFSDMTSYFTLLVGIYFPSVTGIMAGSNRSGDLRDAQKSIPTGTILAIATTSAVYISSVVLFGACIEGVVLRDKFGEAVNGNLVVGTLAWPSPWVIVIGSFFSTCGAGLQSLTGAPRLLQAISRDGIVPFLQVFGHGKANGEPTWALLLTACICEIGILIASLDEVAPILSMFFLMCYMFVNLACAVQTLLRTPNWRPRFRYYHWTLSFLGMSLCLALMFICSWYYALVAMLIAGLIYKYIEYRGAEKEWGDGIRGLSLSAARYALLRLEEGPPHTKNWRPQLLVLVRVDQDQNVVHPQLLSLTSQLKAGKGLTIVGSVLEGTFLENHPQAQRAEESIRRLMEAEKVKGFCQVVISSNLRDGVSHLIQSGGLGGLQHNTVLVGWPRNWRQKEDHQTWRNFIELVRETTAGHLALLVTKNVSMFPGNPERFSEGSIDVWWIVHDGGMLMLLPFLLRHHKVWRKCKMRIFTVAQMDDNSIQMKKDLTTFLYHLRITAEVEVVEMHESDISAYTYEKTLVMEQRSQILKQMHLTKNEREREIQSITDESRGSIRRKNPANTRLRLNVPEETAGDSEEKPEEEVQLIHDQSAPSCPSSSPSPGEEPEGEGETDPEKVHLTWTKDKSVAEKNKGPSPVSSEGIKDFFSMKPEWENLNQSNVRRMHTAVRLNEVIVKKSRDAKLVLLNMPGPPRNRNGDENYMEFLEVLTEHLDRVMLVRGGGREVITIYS
Test: concentration-response of KCC2 transport modulators – cell-based, HEK293 KCC2, FluoZin-2 fluorescence, dose response (AID 1736)

[1] = inactive by the depositor's call

SMILES: O=C(NN=Cc1ccc(Cl)s1)C1COc2ccccc2O1 (stereo not given) [2,3-Dihydro-benzo[1,4]dioxine-2-carboxylic acid [1-(5-chloro-thiophen-2-yl)-meth-(Z)-ylidene]-hydrazide]
- EC50: 32.7 µM

SMILES: O=S(=O)(NCc1ccccc1)c1ccc(Cl)c(S(=O)(=O)NCc2ccccc2)c1 [1-N,3-N-dibenzyl-4-chlorobenzene-1,3-disulfonamide]
- EC50: 2.11 µM

SMILES: S=C(NCCc1ccccc1)NN=Cc1cccc(Cl)c1Cl [1-[(2,3-dichlorobenzylidene)amino]-3-phenethyl-thiourea]
- EC50: 7.78 µM

SMILES: Cc1ccc(OCCC(=O)OCC(=O)N2c3ccccc3CC2C)cc1 (stereo not given) [3-(4-methylphenoxy)propanoic acid [2-(2-methyl-2,3-dihydroindol-1-yl)-2-oxoethyl] ester]
- EC50: 4.4 µM

SMILES: Cn1c(C(=O)NCCN2CCN(c3ccccc3F)CC2)cc2c(=O)n(C)c3ccccc3c21 [MLS000118132]
- EC50: 2.68 µM

SMILES: COc1cc(C)c(C)cc1S(=O)(=O)N1CCN(Cc2ccccc2)CC1 [1-(2-methoxy-4,5-dimethyl-phenyl)sulfonyl-4-(phenylmethyl)piperazine]
- EC50 [1]: 33.3 µM

SMILES: CCc1ccc(Nc2nnc(SCC(=O)Nc3sccc3C(N)=O)s2)cc1 [2-[2-[[5-[(4-ethylphenyl)amino]-1,3,4-thiadiazol-2-yl]sulfanyl]ethanoylamino]thiophene-3-carboxamide]
- EC50: 6.01 µM

SMILES: Cc1cccc(Nc2nnc(SCC(=O)c3ccc(Br)s3)s2)c1C [1-(5-bromanylthiophen-2-yl)-2-[[5-[(2,3-dimethylphenyl)amino]-1,3,4-thiadiazol-2-yl]sulfanyl]ethanone]
- EC50: 1.49 µM

SMILES: O=C1Nc2ccc([N+](=O)[O-])cc2OC1CCN1CCN(Cc2ccccc2)CC1 (stereo not given) [2-[2-(4-benzylpiperazin-1-yl)ethyl]-7-nitro-4H-1,4-benzoxazin-3-one]
- EC50: 15.1 µM

SMILES: Cc1nn2c(nc(O)c3ccccc32)c1C=O [MLS000565386]
- EC50: 40.9 µM

SMILES: COc1cc(C=NN(C)c2ccccc2)ccc1O
- EC50: 10100 µM

SMILES: COc1ccc(-c2cc(CNC(=O)CN(C)Cc3ccccc3)on2)cc1 [2-[benzyl(methyl)amino]-N-[[3-(4-methoxyphenyl)-1,2-oxazol-5-yl]methyl]acetamide]
- EC50: 15 µM

SMILES: COc1ccc(S(=O)(=O)N(C)CC(=O)N2CCN(Cc3ccccc3)CC2)cc1C [4-methoxy-N,3-dimethyl-N-[2-oxidanylidene-2-[4-(phenylmethyl)piperazin-1-yl]ethyl]benzenesulfonamide]
- EC50: 3.52 µM

SMILES: COc1ccc(N(CC(=O)Nc2cccc(C)c2C)S(=O)(=O)c2c(C)n[nH]c2C)cc1 [N-(2,3-dimethylphenyl)-2-[(3,5-dimethyl-1H-pyrazol-4-yl)sulfonyl-(4-methoxyphenyl)amino]ethanamide]
- EC50: 15.7 µM

SMILES: O=C(Nc1ccc2oc(-c3ccccc3)nc2c1)c1ccncc1 [MLS000109492]
- EC50: 3.24 µM

SMILES: Cc1cc(Cl)ccc1Oc1ccccc1C(=O)CC#N [3-[2-(4-chloranyl-2-methyl-phenoxy)phenyl]-3-oxidanylidene-propanenitrile]
- EC50 [1]: 233 µM

SMILES: CC1CCCCN1C(=O)CSc1ccc(-c2ccc(F)cc2)nn1 (stereo not given) [2-[6-(4-Fluoro-phenyl)-pyridazin-3-ylsulfanyl]-1-(2-methyl-piperidin-1-yl)-ethanone]
- EC50: 8190 µM

SMILES: O=C(CSc1ccc(-c2ccccc2)nn1)N1CCCc2ccccc21 [1-(3,4-dihydro-2H-quinolin-1-yl)-2-(6-phenylpyridazin-3-yl)sulfanyl-ethanone]
- EC50: 10.5 µM

SMILES: CC(=NNC(=O)c1ccc(Cl)c(Cl)c1)c1ccc(Br)s1 [N-[1-(5-bromo-2-thiophenyl)ethylideneamino]-3,4-dichlorobenzamide]
- EC50: 0.48 µM

SMILES: O=c1[nH]c2c(s1)C(c1ccccc1)c1c(c(O)n(-c3ccccc3)c1O)S2 (stereo not given)
- EC50: 0.102 µM

SMILES: S=C(NCc1cccnc1)Nc1ccc(Oc2ccccc2)cc1 [1-(4-phenoxyphenyl)-3-(3-pyridinylmethyl)thiourea]
- EC50: 5.3 µM

SMILES: N#C/C(=C\c1ccc(-c2cccc([N+](=O)[O-])c2)o1)C(=O)Nc1nc(-c2cccs2)cs1 [MLS000402444]
- EC50 [1]: 9.15 µM

SMILES: Cc1ccc(S(=O)(=O)N(CCC(=O)O)Cc2ccc(Cl)cc2)cc1 [3-[(4-chlorobenzyl)-tosyl-amino]propionic acid]
- EC50: 0.356 µM

SMILES: O=C(Cn1c(-c2ccc(Cl)cc2)noc1=O)N1CCN(c2ccccc2F)CC1 [3-(4-Chloro-phenyl)-4-{2-[4-(2-fluoro-phenyl)-piperazin-1-yl]-2-oxo-ethyl}-4H-[1,2,4]oxadiazol-5-one]
- EC50: 6.07 µM

SMILES: N#Cc1c(NC(=O)CSc2nc(N)cc(=O)[nH]2)sc2c1CCCCCC2 [2-[(6-amino-4-oxo-1H-pyrimidin-2-yl)sulfanyl]-N-(3-cyano-4,5,6,7,8,9-hexahydrocycloocta[b]thiophen-2-yl)acetamide]
- EC50: 0.461 µM

SMILES: C=CCNC(=O)NC(=O)CSc1nc2cc([N+](=O)[O-])ccc2n1-c1cccc(C(F)(F)F)c1 [2-[5-nitro-1-[3-(trifluoromethyl)phenyl]benzimidazol-2-yl]sulfanyl-N-(prop-2-enylcarbamoyl)acetamide]
- EC50 [1]: 19.2 µM

SMILES: COc1ccc(CN(C(=O)c2ccc(-c3ccccc3)[nH]2)C(C(=O)NC(C)(C)C)c2ccncc2)cc1 (stereo not given) [SMR000279859]
- EC50 [1]: 34.4 µM

SMILES: COc1ccccc1N1CCN(C(=S)NC(=O)/C=C/c2ccccc2)CC1 [(E)-N-[4-(2-Methoxy-phenyl)-piperazine-1-carbothioyl]-3-phenyl-acrylamide]
- EC50: 109 µM

SMILES: CC(C)c1onc(C(=O)NCCc2ccccc2)c1[N+](=O)[O-] [4-nitro-N-(2-phenylethyl)-5-propan-2-yl-1,2-oxazole-3-carboxamide]
- EC50 [1]: 20.6 µM

SMILES: O=c1[nH]c2ccc(S(=O)(=O)N3CCN(c4ccccc4F)CC3)cc2s1 [6-{[4-(2-fluorophenyl)piperazin-1-yl]sulfonyl}-1,3-benzothiazol-2(3H)-one]
- EC50: 8.21 µM

SMILES: O=S1(=O)N=C(N2CCN(Cc3ccccc3)CC2)c2ccccc21 [3-(4-Benzyl-piperazin-1-yl)-benzo[d]isothiazole 1,1-dioxide]
- EC50: 3.19 µM

SMILES: O=C(C1CCN(S(=O)(=O)c2cccc3nsnc23)CC1)N1CCc2ccccc2C1 [2-{[1-(2,1,3-benzothiadiazol-4-ylsulfonyl)piperidin-4-yl]carbonyl}-1,2,3,4-tetrahydroisoquinoline]
- EC50: 34.1 µM

SMILES: O=C(Cn1cnc2c(nnn2Cc2ccc(F)cc2)c1=O)N1CCN(c2ccccc2)CC1 [3-(4-fluorobenzyl)-6-[2-keto-2-(4-phenylpiperazino)ethyl]triazolo[4,5-d]pyrimidin-7-one]
- EC50: 8.12 µM

SMILES: O=C(CSc1ccccc1C(=O)NCc1ccccc1)NC12CC3CC(CC(C3)C1)C2
- EC50: 5.21 µM

SMILES: COC(=O)c1sccc1NC(=S)OC [3-(methoxycarbothioylamino)thiophene-2-carboxylic acid methyl ester]
- EC50: 3.94 µM

SMILES: O=C(Nc1cccnc1)c1ccc(COc2cc(Cl)ccc2Cl)o1 [5-[(2,5-dichlorophenoxy)methyl]-N-(3-pyridinyl)-2-furancarboxamide]
- EC50: 106 µM

SMILES: O=C(C=Cc1ccccc1)CC(=O)c1ccccc1O [MLS000627068]
- EC50: 12.4 µM

SMILES: O=C(CN(c1ccc2c(c1)OCCO2)S(=O)(=O)c1ccccc1)N1CCN(Cc2ccccc2)CC1 [MLS000693333]
- EC50: 2.43 µM

SMILES: CNC(=O)/C(=C\C=C\c1ccccc1)NC(=O)c1ccc([N+](=O)[O-])cc1 [MLS000570424]
- EC50: 3.2 µM

SMILES: CC1CCN(C(=O)CSc2ccc(-c3ccc(F)cc3)nn2)CC1 [2-[6-(4-Fluoro-phenyl)-pyridazin-3-ylsulfanyl]-1-(4-methyl-piperidin-1-yl)-ethanone]
- EC50: 3.08 µM
